# Experimental data from patent publication US20110229499A1, “METHOD FOR TREATMENT OF VASCULAR HYPERPERMEABILITY” (priority 2010, published 2011).
# System: Rat lung microvascular endothelial cells
# Assay: Adherens junction damage, beta catenin immunofluorescence
# Type: cell-based
# Conditions: SCF 100 ng/ml pre-treatment 1 hour
# Description: Rat lung microvascular endothelial cells were grown on fibronectin coated chamber slides in complete MCDB-3 media for 24 hours. The cells were pre-treated with SCF (100 ng/ml) for 1 hour. The cells exposed to shock serum or were transfected with caspase-3 (5 μg/ml) for 60 minutes. Caspase-3 were exposed to TransIT (10 μl/ml) for 15 minutes before exposure to the cells. The cells were washed in PBS, permeabilized with Triton X-100 and fixed with 4% paraformaldehyde. The cells were then washed in PBS, blocked with 2.5% BSA-PBS and exposed to polyclonal antibody against β-catenin overnight at 4° C. The cells were washed, mounted in an antifade-DAPI mountant and visualized utilizing a fluorescent microscope.
substance,measurement,setting,value
"SCF: stem cell factor, a soluble factor (protein) produced by stem cells",caspase-3 mediated adherens junction disruption,caspase-3 5 μg/ml transfected 60 minutes,did not protect
same,shock serum-induced adherens junction disruption,shock serum 60 minutes,showed protection
